What was measured:
[1] = biological target: T1, ATP-dependent translocase ABCB1 (Homo sapiens, UniProt P08183); test: TP_TRANSPORTER: Western blot, HK-2 cells; type: functional, cell-based
[2] = biological target: T1, ATP-dependent translocase ABCB1; test: TP_TRANSPORTER: RT-PCR in HK-2 cell; type: functional, cell-based

T1 sequence (P08183 whole entry): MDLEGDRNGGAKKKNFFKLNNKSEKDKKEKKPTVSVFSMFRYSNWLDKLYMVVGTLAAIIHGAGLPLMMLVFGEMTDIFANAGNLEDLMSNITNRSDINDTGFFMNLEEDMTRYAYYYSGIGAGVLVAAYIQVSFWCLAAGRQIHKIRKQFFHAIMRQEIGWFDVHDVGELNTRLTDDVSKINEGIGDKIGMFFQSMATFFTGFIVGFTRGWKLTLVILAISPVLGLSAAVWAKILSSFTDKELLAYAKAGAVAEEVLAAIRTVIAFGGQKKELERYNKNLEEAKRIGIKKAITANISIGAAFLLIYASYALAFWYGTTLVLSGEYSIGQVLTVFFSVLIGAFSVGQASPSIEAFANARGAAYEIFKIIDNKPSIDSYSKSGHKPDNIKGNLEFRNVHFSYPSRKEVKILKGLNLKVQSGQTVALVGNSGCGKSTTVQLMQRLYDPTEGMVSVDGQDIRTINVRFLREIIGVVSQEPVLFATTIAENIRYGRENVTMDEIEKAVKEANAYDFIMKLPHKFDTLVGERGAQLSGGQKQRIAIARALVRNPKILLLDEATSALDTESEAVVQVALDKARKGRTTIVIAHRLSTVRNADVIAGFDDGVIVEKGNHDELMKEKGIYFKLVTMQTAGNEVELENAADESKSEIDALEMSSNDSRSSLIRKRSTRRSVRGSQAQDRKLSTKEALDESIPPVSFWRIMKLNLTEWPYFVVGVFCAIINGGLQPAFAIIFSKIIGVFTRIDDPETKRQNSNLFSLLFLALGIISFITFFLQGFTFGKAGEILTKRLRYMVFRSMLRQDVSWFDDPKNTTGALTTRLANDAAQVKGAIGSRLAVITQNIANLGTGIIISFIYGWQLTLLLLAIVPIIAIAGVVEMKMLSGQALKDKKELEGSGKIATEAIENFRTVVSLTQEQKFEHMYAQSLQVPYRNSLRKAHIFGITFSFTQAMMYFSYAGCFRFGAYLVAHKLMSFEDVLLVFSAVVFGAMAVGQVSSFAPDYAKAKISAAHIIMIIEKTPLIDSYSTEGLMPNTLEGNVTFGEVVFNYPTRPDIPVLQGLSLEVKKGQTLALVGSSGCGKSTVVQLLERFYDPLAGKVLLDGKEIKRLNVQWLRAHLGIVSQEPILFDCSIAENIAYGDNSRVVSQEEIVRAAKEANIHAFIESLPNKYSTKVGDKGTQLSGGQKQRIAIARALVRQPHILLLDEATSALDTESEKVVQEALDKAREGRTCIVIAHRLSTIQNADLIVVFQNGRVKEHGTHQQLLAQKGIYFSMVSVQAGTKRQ

C[C@@H]1C[C@H]2[C@@H]3CCC4=CC(=O)C=C[C@]4(C)[C@@]3(F)[C@@H](O)C[C@]2(C)[C@@]1(O)C(=O)CO [DEXAMETHASONE]
Activity [1]: inducer [+]
Activity [2]: inducer [+]

COc1cc(Cc2cnc(N)nc2N)cc(OC)c1OC [TRIMETHOPRIM]
Activity [1]: is not an inducer [-]
Activity [2]: is not an inducer [-]

C[C@]12CCC(=O)C=C1CC[C@@H]1[C@@H]2[C@@H](O)C[C@]2(C=O)[C@@H](C(=O)CO)CC[C@@H]12 [ALDOSTERONE]
Activity [1]: inducer [+]

Cc1ccc2cc3c(ccc4ccccc43)c3c2c1CC3 [3-METHYLCHOLANTHRENE]
Activity [1]: inducer [Decrease]

CC(=O)Nc1ccc2c(c1)Cc1ccccc1-2 [2-ACETYLAMINOFLUORENE]
Activity [1]: inducer [Decrease]
Activity [2]: inducer [Decrease]

CN/C(=N/CCSCc1nc[nH]c1C)NC#N [CIMETIDINE]
Activity [1]: is not an inducer [-]
Activity [2]: is not an inducer [-]

CCCCCCCCCCCCCCCCOC[C@H](COP(=O)([O-])OCC[N+](C)(C)C)OC(C)=O [PLATELET ACTIVATING FACTOR]
Activity [1]: inducer [+]
Activity [2]: inducer [+]

COc1ccc(CCN(C)CCCC(C#N)(c2ccc(OC)c(OC)c2)C(C)C)cc1OC (stereo unspecified)
Activity [1]: is not an inducer [-]
Activity [2]: is not an inducer [-]

CC(=O)[C@H]1CC[C@H]2[C@@H]3CCC4=CC(=O)CC[C@]4(C)[C@H]3CC[C@]12C [PROGESTERONE]
Activity [1]: is not an inducer [-]
Activity [2]: is not an inducer [-]

— ChEMBL document CHEMBL2074170, “Influence of different chemicals on MDR-1 P-glycoprotein expression and activity in the HK-2 proximal tubular cell line” (Toxicol Appl Pharmacol, 2002)
